Source: patent publication US12630551B2, “Endocyclic pyrimidinone compounds, and preparation methods, compositions and use thereof” (NEUSCO BIOTECH LIMITED, priority 2020, dated 2026)

What was measured:
[1] = target: T1, Lp-PLA2 enzyme in human plasma (Homo sapiens, UniProt Q13093); experiment: Human plasma Lp-PLA2 assay (Thio-PAF assay); assay type: biochemical; details: mixed human plasma, 2-thio-PAF substrate, CPM, 30-min pre-incubation, fluorescence ex 380/em 485; for IC50: read-out: Thio-PAF (pIC50) (converted)
T1 construct: from tissue; host or cells: mixed (pooled) human plasma
T1 sequence (Q13093 22-441): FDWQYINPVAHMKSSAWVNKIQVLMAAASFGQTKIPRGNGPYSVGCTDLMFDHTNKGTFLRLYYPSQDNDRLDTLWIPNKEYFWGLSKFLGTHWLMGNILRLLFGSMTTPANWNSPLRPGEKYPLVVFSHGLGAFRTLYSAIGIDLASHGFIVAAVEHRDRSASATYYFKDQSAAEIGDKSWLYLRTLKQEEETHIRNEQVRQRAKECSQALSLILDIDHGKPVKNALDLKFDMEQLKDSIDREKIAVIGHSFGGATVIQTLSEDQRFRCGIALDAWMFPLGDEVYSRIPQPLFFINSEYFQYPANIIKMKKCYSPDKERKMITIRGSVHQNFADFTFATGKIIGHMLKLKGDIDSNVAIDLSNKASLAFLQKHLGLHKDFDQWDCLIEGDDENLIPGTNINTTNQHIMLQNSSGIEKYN
Description: (2) Human Plasma Lp-PLA2 Assay (Also Known as Thio-PAF Assay) The human plasma assay was conducted using the […] analog of PAF (phosphatidylcholine). After hydrolysis, it would generate phospholipids containing free sulfhydryl groups, which would be subjected to Michael addition with CPM to generate fluorescence-enhancing maleimide. Continuous quantitative analysis of thiol could be conducted by detecting the fluorescence intensity. This assay can be used to detect the inhibitory activity of the Lp-PLA2 inhibitor on the Lp-PLA2 enzyme in human plasma. […] The plate was centrifuged at 500 rpm for 10 seconds. […] Two minutes later, the reaction was quenched with 5 μl of 5% trifluoroacetic acid.

[2] = target: T2, recombinant human Lp-PLA2 enzyme (Homo sapiens, UniProt Q13093); experiment: Recombinant human Lp-PLA2 (rhLp-PLA2) assay (PED6 assay); assay type: biochemical; details: PED6 substrate, enzyme 4 nM or 110 pM, 30-min pre-incubation, fluorescence ex 480/em 540; for IC50: read-out: rhLp-PLA2 (pIC50) (converted)
T2 sequence (Q13093 22-441): T1 sequence (Q13093 22-441)
Description: (1) Recombinant Human Lp-PLA2 (rhLp-PLA2) Assay (Also Known as PED6 Assay) PED6 is a fluorescently labeled phospholipid, which could be purchased directly from Invitogene or Molecular Probes. PED6 has a fluorescence quenching […] and a Bodipy fluorescein (FL) group at the sn2 position. Once cleaved by an Lp-PLA2 enzyme, it will release the FL group, resulting in enhanced fluorescence. […] The plate was centrifuged at 500 rpm for 10 seconds.

Structure (SMILES) | IC50 [1] | IC50 [2] | Thio-PAF (pIC50) [1] | rhLp-PLA2 (pIC50) [2]
O=c1nc(OCc2cc(F)c(Oc3cccc(C(F)(F)F)c3)c(F)c2)cc2n1C[C@H]1CCCN2C1 [Compound 20] | 3.16 nM | 0.0316 nM | – | –
O=c1nc(OCc2cc(F)c(Oc3ccc(OC(F)(F)F)c(Cl)c3)c(F)c2)cc2n1CC1CCCN2C1 (stereo not shown) [Compound 15] | 12.6 nM | 0.2 nM | – | –
O=c1nc(OCc2cc(F)c(Oc3ccc(C(F)(F)F)c(Cl)c3)c(F)c2)cc2n1CC1CCCN2C1 (stereo not shown) [Compound 16] | 7.94 nM | 0.0794 nM | – | –
O=c1nc(OCc2cc(F)c(Oc3ccc(C(F)(F)F)cc3)c(F)c2)cc2n1CC1CCCN2C1 (stereo not shown) [Compound 13] | 7.94 nM | 0.0631 nM | – | –
O=c1nc(OCc2cc(F)c(Oc3ccnc(C(F)(F)F)c3)c(F)c2)cc2n1CC1CCCN2C1 (stereo not shown) [Compound 5] | 3.16 nM | 0.0316 nM | – | –
O=c1nc(OCc2cc(F)c(Oc3cnc(C(F)(F)F)nc3)c(F)c2)cc2n1CC1CCCN2C1 (stereo not shown) [Compound 9] | 10 nM | 0.1 nM | – | –
Cc1ccc(Oc2c(F)cc(COc3cc4n(c(=O)n3)C[C@H]3CN4CCO3)cc2F)cn1 [Compound 36] | 12.6 nM | 0.126 nM | – | –
O=c1nc(OCc2cc(F)c(Oc3cccc(OC(F)(F)F)c3)c(F)c2)cc2n1CC1CCCN2C1 (stereo not shown) [Compound 12] | 15.8 nM | 0.316 nM | – | –
Cc1ccc(Oc2c(F)cc(COc3cc4n(c(=O)n3)C[C@@H]3CN4CCO3)cc2F)cn1 [Compound 30] | 10 nM | 0.158 nM | – | –
O=c1nc(OCc2cc(F)cc(F)c2)cc2n1C[C@@H]1CN2CCO1 [Compound 39] | 100 nM | – | – | 8.4
O=c1nc(OCc2cc(F)cc(F)c2)cc2n1C[C@@H]1CN2CCO1 [Compound 33] | 79.4 nM | 3.98 nM | – | –
O=c1nc(OCc2cc(F)c(Oc3ccc(Cl)c(C(F)(F)F)c3)c(F)c2)cc2n1CC1CCCN2C1 (stereo not shown) [Compound 14] | 6.31 nM | 0.0398 nM | – | –

Next, values leading:

IC50 [1] | IC50 [2] | Thio-PAF (pIC50) [1] | rhLp-PLA2 (pIC50) [2] | Structure (SMILES)
39.8 nM | 3.16 nM | – | – | O=c1nc(OCc2cc(F)cc(F)c2)cc2n1CC1CCCN2C1 (stereo not shown) [Compound 4]
7.94 nM | 0.1 nM | – | – | Cc1ccc(Oc2c(F)cc(COc3cc4n(c(=O)n3)C[C@@H]3CCCN4C3)cc2F)cn1 [Compound 24]
– | 39.8 nM | 6.5 | – | O=c1nc(OCc2cc(F)c(F)cc2F)cc2n1C[C@H]1CCCN2C1 [Compound 28]
15.8 nM | 0.316 nM | – | – | Cc1ncc(Oc2c(F)cc(COc3cc4n(c(=O)n3)CC3CCCN4C3)cc2F)cn1 (stereo not shown) [Compound 8]
31.6 nM | 2.51 nM | – | – | O=c1nc(OCc2ccc(F)cc2F)cc2n1CC1CCCN2C1 (stereo not shown) [Compound 2]
316 nM | 31.6 nM | – | – | O=c1nc(OCc2cc(F)c(F)cc2F)cc2n1C[C@H]1CCCN2C1 [Compound 22]
316 nM | 31.6 nM | – | – | O=c1nc(OCc2cc(F)c(F)cc2F)cc2n1CC1CCCN2C1 (stereo not shown) [Compound 3]
50.1 nM | – | – | 8.5 | O=c1nc(OCc2cc(F)cc(F)c2)cc2n1C[C@H]1CCCN2C1 [Compound 27]
7.94 nM | 0.0794 nM | – | – | Cc1ccc(Oc2c(F)cc(COc3cc4n(c(=O)n3)CC3CCCN4C3)cc2F)cn1 (stereo not shown) [Compound 7]
– | 50.1 nM | 6.3 | – | O=c1nc(OCc2cc(F)c(F)cc2F)cc2n1C[C@@H]1CN2CCO1 [Compound 40]
7.94 nM | 0.0794 nM | – | – | Cc1ccc(Oc2c(F)cc(COc3cc4n(c(=O)n3)C[C@H]3CCCN4C3)cc2F)cn1 [Compound 18]
6.31 nM | 0.0631 nM | – | – | Cc1cc(Oc2c(F)cc(COc3cc4n(c(=O)n3)CC3CCCN4C3)cc2F)ccn1 (stereo not shown) [Compound 6]
39.8 nM | 3.16 nM | – | – | O=c1nc(OCc2cc(F)cc(F)c2)cc2n1C[C@H]1CCCN2C1 [Compound 21]
501 nM | 63.1 nM | – | – | O=c1nc(OCc2cc(F)c(F)cc2F)cc2n1C[C@@H]1CN2CCO1 [Compound 34]
3.98 nM | 0.0398 nM | – | – | O=c1nc(OCc2cc(F)c(Oc3cccc(C(F)(F)F)c3)c(F)c2)cc2n1C[C@@H]1CCCN2C1 [Compound 26]
10 nM | 0.126 nM | – | – | O=c1nc(OCc2cc(F)c(Oc3cccc(C(F)(F)F)c3)c(F)c2)cc2n1CC1CCCN2C1 (stereo not shown) [Compound 10]
7.94 nM | 0.0794 nM | – | – | Cc1cc(Oc2c(F)cc(COc3cc4n(c(=O)n3)CC3CCCN4C3)cc2F)ccc1Cl (stereo not shown) [Compound 11]
